Experimental data: patent publication US20030114434A1, “EXTENDED DURATION LIGHT ACTIVATED CANCER THERAPY” (priority 1999, published 2003)
Values joined by “and” are separate entries in the source; they are usually repeats but may differ in a detail not shown here. Identical values can stand only once.

Experiments:
[1] = systemic clinical use; cited from earlier work
[2] = tested on: colon carcinoma tumor mass; assay: Extended duration PDT of a colon carcinoma tumor mass in a patient, implanted LED probes; format: in vivo, human
From the text: A patient in the terminal phase of recurrent malignant colon cancer having undergone chemotherapy and irradiation therapy, presented with a protruding colon carcinoma tumor mass of approximately 500 grams and approximately 13 cm in diameter, which extended through the patient's dermis. Due to the advanced state of the patient's disease and due to the highly vascularized nature of this tumor mass, resection was not feasible. Further, this large tumor mass presented a significant amount of pain and discomfort to the patient, as well as greatly impairing the patient's ability to lie flat.
Six separate light source probes, each including a linear array of LEDs, were surgically implanted in this large human tumor using standard surgical procedures. A single dose of a photosensitizer agent (aminolevulinic acid (ALA) at 60 mg/kg) was provided by oral administration to the patient. Following a period of five hours to permit sufficient clearance of the photosensitizing agent from healthy tissues, light irradiation was administered. An intensity of about 25-30 mW of light from each light source probe (650 nm peak wavelength) was delivered to the tumor for 40 hours. […] The total fluence delivered to the tumor bed during this single extended duration treatment was in excess of 20,000 Joules.
The fluence rate employed in this Example represented about 150-180 mW/cm^2, with a total fluence more than 20,000 Joules.

epithelial cancer cells = assay: Nude mice injected with epithelial cancer cells preincubated with photosensitizer, low fluence light; format: in vivo; details: for tumor growth: 660 nm light 48 hours, two mice
Protocol: (§1) A series of experiments were performed using nude mice growing transplanted human tumors. The mice are injected with various photosensitizers and the tumors illuminated with low fluence of only 30 uW of light over a 72 hour time period. Extended tumor necrosis was observed.
(§2) All control nude mice were injected with the PDT drug (intratumor or intraperitoneal) and 5 million human carcinoma cells which developed a tumor mass. These mice were kept in a darkened environment.
(§3) Another two mice with established tumors were injected with 50-100 micrograms of Pheophorbide A into the lesion and exposed to 660 nm light (30 microwatts per cm^2) for 72 hours.
(§4) Two experimental mice were injected with epithelial cancer cells preincubated with 20 micrograms of Chlorin e6. […] Another two mice were injected with 100-150 micrograms of Chlorin e6 intratumorally and then exposed to 660 nm light (30 microwatts per cm^2) for 72 hours.

[3] = tested on: transplanted human tumors; assay: Nude mice with established transplanted human tumors, photosensitizer injected, low fluence light 72 hours; format: in vivo; details: for tumor necrosis: 660 nm light 72 hours, 30 microwatts per cm^2, after 7 days, two mice
Protocol: as §1, §2, §3, §4
Five experimental mice bearing established tumors were injected with 1 mg Hpd intraperitoneally followed by exposure to 630 nm (peak) light (30 microwatts per cm^2) for 72 hours. […] There was no effect observed on control animals maintained in the absence of light (dark control mice).

[4] = cited from earlier work

Question: For CCOC(=O)C1=Cc2c3nc(cc4nc(cc5[n-]c(cc6[n-]c2c(C)c6CC)c(C)c5CC)C(C)=C4CC)[C@@H](C)[C@]13CC.[Cl-].[Cl-].[Sn] (racemic) [PURLYTIN], which “duration of dermal photosensitivity” value [1] is on record?
Answer: at least several weeks

Question: Which “collateral damage to surrounding normal tissue” value ([2]; ALA 60 mg/kg oral, after 40 hours of PDT) does the source give for NCC(=O)CCC(=O)O [ALA, aminolevulinic acid] here?
Answer: no collateral damage

Question: What about the “radius of extensive tumor necrosis from each light source probe” value ([2]; ALA 60 mg/kg oral, light from 5 hours after dose, 650 nm, 40 hours of PDT, total fluence >20,000 Joules) of the same compound?
Answer: greater than 5 cm

Question: What about the “reduction of tumor tissue (necrotic tissue debrided)” value ([2]; over four weeks following PDT) of the same compound?
Answer: approximately 500 grams

Question: What does the source list for C=Cc1c(C)c2cc3nc(c(CC(=O)O)c4[nH]c(cc5nc(cc1[nH]2)C(C)=C5CC)c(C)c4C(=O)O)[C@@H](CCC(=O)O)[C@@H]3C [Chlorin e6]?
Answer: tumor growth, dark control (epithelial cancer cells; Chlorin e6 experiment, absence of light): developed a large tumor; tumor growth (epithelial cancer cells; cells preincubated with 20 micrograms, 30 microwatts per cm^2, after 1.5 months): no tumor growth; tumor necrosis ([3]; 100-150 micrograms intratumorally): Extensive tumor necrosis

Question: For Oc1cccc(-c2c3nc(c(-c4cccc(O)c4)c4ccc([nH]4)c(-c4cccc(O)c4)c4nc(c(-c5cccc(O)c5)c5ccc2[nH]5)CC4)C=C3)c1 [FOSCAN], which “duration of dermal photosensitivity” value [1] is on record?
Answer: at least several weeks

Question: For CC(=O)[O-].CC(=O)[O-].CCc1c(CC)c2cc3nc(cnc4cc(OCCOCCOCCOC)c(OCCOCCOCCOC)cc4ncc4nc(cc1[n-]2)C(CCCO)=C4C)C(C)=C3CCCO.O.[Lu+3] [Lutrin, lutetium texaphyrin], which “time for clearance from normal tissues (predominant amount)” value ([4]; from administration) is on record?
Answer: about 24 hours

Question: What about the “time tumor tissue retains the agent” value ([4]; from time of administration) of the same compound?
Answer: 48 to 96 h and 24 to 96 h

Question: And the “time at which a larger proportion clears from normal tissue” value ([4]; in vivo)?
Answer: about 8 hours

Question: And the “time at which a proportion begins to clear from normal tissue” value ([4]; in vivo)?
Answer: about 3 hours

Question: What about the “time at which an even greater proportion clears from normal tissue” value ([4]; in vivo) of the same compound?
Answer: about 16 hours

Question: For Pheophorbide A, which “tumor growth, dark control” value (epithelial cancer cells; Pheophorbide A experiment, maintained in the absence of light) is on record?
Answer: developed a large tumor

Question: What about the tumor growth (epithelial cancer cells; cells preincubated with 10 micrograms, 30 microwatts per cm2, after 1.5 months) of the same compound?
Answer: no tumor growth

Question: What about the tumor necrosis ([3]; 50-100 micrograms into the lesion) of the same compound?
Answer: Extensive tumor necrosis

Question: And the “effect on tumor, dark control” value ([3]; Pheophorbide A experiment, absence of light)?
Answer: no effect

Question: Which “duration of dermal photosensitivity” value [1] does the source give for sodium porfimer [PHOTOFRIN] here?
Answer: up to six weeks
